Experimental data from ChEMBL document CHEMBL1128145, “N-(carbobenzyloxy)isatin: A slow binding -keto lactam inhibitor of -chymotrypsin” (Bioorg Med Chem Lett, 1995).

Key:
Chymotrypsinogen B [1] = biological target: T1, Chymotrypsinogen B (Homo sapiens, UniProt P17538); test: Inhibition constant against Alpha-chymotrypsin inhibitor was determined
Chymotrypsinogen B [2] = biological target: T1, Chymotrypsinogen B; test: Inhibition constant against alpha-chymotrypsin
Chymotrypsinogen B [3] = biological target: T1, Chymotrypsinogen B
Description: Rate constant against alpha-chymotrypsin from time dependent inhibition and reactivation data

Chymotrypsinogen B [4] = biological target: T1, Chymotrypsinogen B; remark: listed apart in the source
Description: (§1) Rate constant against alpha-chymotrypsin

Chymotrypsinogen B [5] = biological target: T1, Chymotrypsinogen B; remark: listed apart in the source
Description: Rate constant against Alpha-chymotrypsin from time dependent inhibition and reactivation data

Chymotrypsinogen B [6] = biological target: T1, Chymotrypsinogen B; remark: listed apart in the source
Description: as §1

T1 sequence (P17538 34-164 limits assumed, other chains not shown): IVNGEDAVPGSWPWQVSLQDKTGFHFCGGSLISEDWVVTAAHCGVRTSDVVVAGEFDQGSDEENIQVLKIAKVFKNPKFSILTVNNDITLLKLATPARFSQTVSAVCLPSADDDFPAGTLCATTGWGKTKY
T1 sequence (P17538 167-263 limits assumed, other chains not shown): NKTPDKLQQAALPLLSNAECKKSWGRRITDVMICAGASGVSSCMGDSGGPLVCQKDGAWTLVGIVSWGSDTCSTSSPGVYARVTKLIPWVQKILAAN

Row | Ki (Chymotrypsinogen B [1]) [µM] | Ki (Chymotrypsinogen B [2]) [µM] | k off (Chymotrypsinogen B [3]) [s⁻¹] | k on (Chymotrypsinogen B [4]) [M⁻¹ s⁻¹] | k on (Chymotrypsinogen B [5]) [M⁻¹ s⁻¹] | k off (Chymotrypsinogen B [6]) [s⁻¹] | SMILES
1 | > 2000 | – | – | – | – | – | CC(C)(C)OC(=O)N1C(=O)C(=O)c2ccccc21
2 | – | 3.8 | 4.01e-05 | 254 | 7.63 | 0.00095 | O=C1C(=O)N(C(=O)OCc2ccccc2)c2ccccc21
